Read-outs that look alike come from different tables or passages of the source.
Tests used:
[1] = Pharmacokinetic evaluation in rats after intravenous injection and oral administration; assay type: in vivo; conditions: rat, plasma; for AUC(0-t): read-out: PK AUClast; for Cmax: read-out: PK Cmax; for half-life: read-out: PK T½ (converted)
Experimental: The analytical LC/MS/MS system includes an Agilent 1200 series vacuum degasser, a binary syringe pump, an orifice plate autosampler, a column oven, and an Agilent G6430 triple quadrupole mass spectrometer with an electrospray ionization (ESI) source.
Agilent XDB-C18, 2.1 × 30 mm, 3.5 µM column was used to analysis, 5 µL sample was injected. Analytical conditions: Mobile phases were 0.1% formic acid in water (A) and 0.1% formic acid in methanol (B). The flow rate was 0.4 mL/min.
In addition, Agilent 6330 series LC/MS/MS spectrometer was used for analysis, equipped with G1312A binary syringe pump, G1367A automatic sampler and G1314C UV detector; LC/MS/MS spectrometer used ESI radiation source. Optimum analysis was achieved using standards with appropriate cation model processing and MRM conversion for each analyte. A Capcell MP-C18 column, 100 × 4.6 mm I.D., 5 µM (Phenomenex, Torrance, California, USA) was used during the analysis. Mobile phase was 5 mM ammonium acetate, 0.1% methanol in water (A): 5 mM ammonium acetate, 0.1% methanol in acetonitrile (B) (70/30, v/v); flow rate was 0.6 mL/min; column temperature was maintained at room temperature; 20 µL of sample was injected.
The present invention evaluates the pharmacokinetic studies of the compounds of the present invention in mice, rats, dogs or monkeys. The compounds of the present invention were administered in the form of aqueous solution or 2% HPMC + 1% Tween-80 aqueous solution, 5% DMSO + 5% saline solution, 4% MC or capsule. For intravenous administration, animals were dosed at about 0.5, 0.6, 1 or 2 mg/kg. The oral doses (p.o.) were 5 or 10 mg/kg for rats and mice, and 10 mg/kg for dogs and monkeys. Bloods (0.3 mL) were taken at time points 0.25, 0.5, 1.0, 2.0, 3.0, 4.0, 6.0, 8.0, 12 and 24 h and centrifuged at 3,000 or 4,000 rpm for 10 min. Plasma solutions were collected and stored at -20° C. or -70° C. until LC/MS/MS analysis as described above. […] Table 2 is the experimental results of the pharmacokinetic characteristics of the compounds provided in the examples of the present invention in rats.

[2] = Stability in human liver microsomes; assay type: in vitro ADME
Experimental: (§1) The stability of the compounds of the present invention in human and rat liver microsomes can be tested by the following two methods:
(§2) Human or rat liver microsomes were incubated in polypropylene tubes in duplicate wells. A typical incubation mixture included human or rat liver microsomes (0.5 mg protein/mL), target compound (5 µM), and a total volume of 200 µL of NADPH (1.0 mM) potassium phosphate buffer (PBS, 100 mM, pH 7.4), the compound was dissolved in DMSO and diluted with PBS, the final concentration of the DMSO solution was 0.05%. Human or rat liver microsomes were incubated at 37° C. in an air-connected water bath. After pre-incubation for 3 minutes, […] was added to start the reaction. The same volume of ice-cold acetonitrile was added to terminate the reaction at different time points (0, 5, 10, 15, 30 and 60 min). Samples were stored at -80° C. until LC/MS/MS analysis.
(§3) The linear concentration range of each target compound was determined, and then, the concentration of the target compounds in the human or rat liver microsomes incubation mixture was determined by LC/MS/MS method.
(§4) Parallel incubations were performed using denatured microsomes as a negative control and dextromethorphan (70 µM) as a positive control. Negative control was incubated at 37° C., the reaction was terminated at different time points (0, 15 and 60 minutes); positive control was incubated at 37° C., the reaction was terminated at different time points (0, 5, 10, 15, 30 and 60 minutes). Positive and negative control samples were used in each assay to ensure the integrity of the microsomal incubation system.
(§5) In addition, the stability data of the compounds of the present invention in human or rat liver microsomes can also be obtained from the following tests:
(§6) Human or rat liver microsomes were incubated in polypropylene tubes in duplicate wells. A typical incubation mixture included human or rat liver microsomes (final concentration: 0.5 mg protein/mL), target compound (final concentration: 1.5 µM) and a total volume of 30 µL of K-buffer solution (containing 1.0 mM EDTA, 100 mM, pH 7.4). Compounds were dissolved in DMSO and diluted with K-buffer solution, the final concentration of DMSO was 0.2%. […]
(§7) For each reaction, in vivo intrinsic hepatic clearance CLint is extrapolated by plotting the compound concentration (expressed as a percentage) in human or rat liver microsomal incubations as a percentage relative to time zero (ref.: Naritomi Y, Terashita S, Kimura S, Suzuki A, Kagayama A, Sugiyama Y. Prediction of human hepatic clearance from in vivo animal experiments and in vitro metabolic studies with liver microsomes from animals and humans. Drug Metabolism and Disposition 2001, 29: 1316-1324.).

[3] = Stability in rat liver microsomes; assay type: in vitro ADME
Experimental: as §1, §2, §3, §4, §5, §6, §7

P-STAT3 = experiment: Effect of TYK2 inhibitor on P-STAT3 expression in PBMC induced by IFN-α (Table 3, P-STAT3 (h)); assay type: cell-based; conditions: Homo sapiens; P-STAT3 by ELISA, PBMC stimulated with IFN-α 5000 U/mL
Experimental: Whole blood was collected from healthy subjects, anticoagulated with heparin sodium, and PBMC (human peripheral blood mononuclear cells) were extracted. PBMC were seeded in 96-well culture plates at a density of 1*106/well. The initial concentration of the positive drug BMS986165 was 1000 nM, after diluting 10 times, the positive drug BMS986165 was diluted 8 concentrations by 3 times; the concentration of the other tested compounds was 333 nM. Positive wells and negative wells were added with the same volume of DMSO as the compound, and the final concentration of DMSO was 0.5%. After the compound was added, the cells were incubated at 37° C. for 1 h, and then stimulated by the addition of IFN-α at a final concentration of 5000 U/mL. An equal volume of medium was added to the negative wells and incubated for 15 min. The cells were centrifuged to remove the supernatant, and lysed, and the P-STAT3 was measured according to the instructions of the ELISA kit, the absorbance was read at 450 nm, and the IC50 value or inhibition rate was calculated.
CTLL-2, P-STAT3 and TF-1 cells were seeded in a 96-well culture plate at a density of 20,000/well with 90 µL per well, and the blank well was an equal amount of complete medium. […]

JAK1/TYK2 = experiment: Cell level activity test of JAK1/TYK2 (IFN-α induced STAT3 phosphorylation in PBMC); assay type: cell-based; conditions: Homo sapiens; P-STAT3 by ELISA in PBMC, compound 1 h, IFN-α 5000 U/mL 15 min; read-out: IC50 nM (JAK 1 /TYK2)
Experimental: IFN-α can induce the phosphorylation of STAT3 downstream of JAK1/TYK2 in PBMC, and by measuring the level of STAT3 phosphorylation, the activity of the compound on JAK1/TYK2 at the cell level can be reflected.
Whole blood was collected from healthy subjects, anticoagulated with heparin sodium, and PBMC (human peripheral blood mononuclear cells) were extracted. PBMC were seeded in a 96-well culture plates at a density of 1*106/well. Positive wells and negative wells were added with the same volume of DMSO as the compound, and the final concentration of DMSO was 0.5%. The compounds were incubated with the cells at 37° C. for 1 h, and then stimulated by adding IFN-α at a final concentration of 5000 U/mL, an equal volume of medium was added to the negative wells, and incubated for 15 min. The cells were centrifuged to remove the supernatant, then lysed, and P-STAT3 was measured according to the instructions of the ELISA kit, the absorbance was read at 450 nm, and the IC50 value or inhibition rate was calculated.

CTLL-2 cells = experiment: Inhibitory effect on CTLL-2 cell proliferation; assay type: cell-based; conditions: alamar blue, read-out: IC50 (nM) CTLL-2 (h)
Experimental: CTLL-2, P-STAT3 and TF-1 cells were seeded in a 96-well culture plate at a density of 20,000/well with 90 µL per well, and the blank well was an equal amount of complete medium. 10 ul of different compound dilutions were added to each plate row BC, DE, and FG, and 5% DMSO medium with equal volume of the compound was added to positive wells and negative wells, and the final concentration of DMSO was 0.5%. After incubating in a 37° C. incubator for 20 h, alamar blue was added, the plate was incubated for 4 h, the fluorescence intensity of each well under the conditions of […], 580 nm wavelength was measured, and the IC50 value was calculated.

TF-1 cells = experiment: Inhibitory effect on TF-1 cell proliferation; assay type: cell-based; conditions: Homo sapiens, alamar blue, read-out: IC50 (nM) TF-1 (h)
Experimental: TF-1 cells were seeded in a 96-well culture plate at a density of 20,000/well with 80 µL per well, the blank well was an equal amount of complete medium, and 10 µL of the compound dilution solution was added to the 96-well plate B1-11, C1-11, E1-11, F1-11, positive and negative wells were added with 5% DMSO medium equal to the volume of the compound, and the final concentration of DMSO was 0.5%. After 30 min, GM-CSF with a final concentration of 2 ng/mL was added to rows B, C, and D (positive wells), and the remaining wells (rows E, F, and G) were added with the same volume of medium as cytokines (negative wells). After incubation for 44 h at 37° C. in 5% CO2, alamar blue was added, the plate was incubated for 4 h, the fluorescence intensity of each well under the conditions of […], 580 nm wavelength was measured, and the IC50 value was calculated.
CTLL-2, P-STAT3 and TF-1 cells were seeded in a 96-well culture plate at a density of 20,000/well with 90 µL per well, and the blank well was an equal amount of complete medium. 10 ul of different compound dilutions were added to each plate row BC, DE, and FG, and 5% DMSO medium with equal volume of the compound was added to positive wells and negative wells, and the final concentration of DMSO was 0.5%. […]

[4] = pH 7.4, in vivo intrinsic hepatic clearance extrapolated

Row | SMILES | AUC(0-t) ([1]; IV 1 mg/kg) [ng·h/mL] | Cmax ([1]; IV 1 mg/kg) [ng/mL] | half-life ([1]; IV 1 mg/kg) [h] | AUC(0-t) ([1]; PO 5 mg/kg) [ng·h/mL] | Cmax ([1]; PO 5 mg/kg) [ng/mL] | half-life ([1]; PO 5 mg/kg) [h] | bioavailability ([1]; oral bioavailability, PO 5 mg/kg) [%] | half-life ([2]; human, pH 7.4, read-out: Human T½) [h] | CLint scaled [2, 4] [mL/min/kg] | CLint scaled [3, 4] [mL/min/kg] | half-life ([3]; rat, pH 7.4, read-out: Rat T½) [h] | IC50 (P-STAT3) [nM] | IC50 (JAK1/TYK2) [nM] | IC50 (CTLL-2 cells) [nM] | IC50 (TF-1 cells) [nM]
1 | COc1cc(-c2cn(C)c3cnc(NC(C)=O)cc23)nc2c1COC21CCOC1 (stereo not drawn) [Example 1, N-(3-(4′-methoxy-4,5-dihydro-2H,5′H-spiro[furan-3,7′-furo[3,4-b]pyridin]-2′ -yl)-1-methyl-1H-pyrrolo[2,3-c]pyridin-5-yl)acetamide] | 1650 | 1170 | 1.24 | 8810 | 2650 | 3.11 | 107 | 1.92 | 15.1 | 16.2 | 2.56 |  |  |  | 
2 | CC(=O)Nc1cc2c(-c3ccc4c(n3)C3(CCOC3)OCC4)cn(C)c2cn1 (stereo not drawn) [Example 3, N-(1-Methyl-3-(4,5,5′,6′-Tetrahydro-2H-Spiro[Furan-3,8′-Pyrano[3,4-b]Pyridine]-2′-yl)-1H-Pyrrolo[2,3-c]Pyridin-5-yl)Acetamide] |  |  |  |  |  |  |  |  |  |  |  | 21.4 | 21.4 | > 10000 | 5290

From US20230339977A1, “SUBSTITUTED HETEROARYL COMPOUND, AND COMPOSITION AND APPLICATION THEREOF” (SUNSHINE LAKE PHARMA CO., LTD., priority 2020, published 2023)
